Data on four substances can be found in publication PMC11013139, “Identification of Corn Peptides with Alcohol Dehydrogenase Activating Activity Absorbed by Caco-2 Cell Monolayers” (Molecules, 2024).

Where no end group is shown, it is not given here.

What is called EC50 is the concentration at which the effect is half-maximal. Read a low EC50 as higher potency in that assay.

One assay deals with ADH enzyme. Particulars: cited from earlier work. An excerpt:
The results of molecular docking were visualized by selecting three peptides with the lowest binding energy, as depicted in Figure 5. Three peptides successfully docked onto the hydrophobic cavity near the ADH active site, primarily binding to ADH through hydrogen bonds and hydrophobic interactions. Twelve hydrogen bonds were formed between SSNCQPF and ADH residues (His 44, Gly 181, Leu 182, Gly 183, Val 245, Ser 246, Val 247, Met 270, Glu 333, Gly 339, Arg 340). Ten hydrogen bonds were formed between QPQQP ...

A further assay concerns the target T1, ADH (Saccharomyces cerevisiae, UniProt P00330).
T1 sequence (P00330 1-348): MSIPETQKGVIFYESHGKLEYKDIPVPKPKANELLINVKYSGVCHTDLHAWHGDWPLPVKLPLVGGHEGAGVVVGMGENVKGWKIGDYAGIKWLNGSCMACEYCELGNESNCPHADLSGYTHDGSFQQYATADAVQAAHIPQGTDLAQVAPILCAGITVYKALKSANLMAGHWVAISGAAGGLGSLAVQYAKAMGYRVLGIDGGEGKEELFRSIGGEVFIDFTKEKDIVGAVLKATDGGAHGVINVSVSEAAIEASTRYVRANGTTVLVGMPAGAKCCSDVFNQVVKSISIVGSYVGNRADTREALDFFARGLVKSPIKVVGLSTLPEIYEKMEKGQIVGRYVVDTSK
Kind of assay: ADH activation activity in vitro (improved assay kit method). The format is biochemical. As to conditions: synthetic peptides; ADH 0.2 U/mL, NAD+ and ethanol, 37 °C, absorbance 340 nm every 10 s for 10 min; mean ± SD of three parallel experiments. The protocol: The ADH activation activity in vitro was detected using an improved assay kit method. The specific steps are as follows: 50 μL of the sample solution was mixed with 150 μL of the assay reagent (including buffer, NAD^+, and ethanol); after equilibrating at 37 °C for 5 min, 50 μL of ADH (0.2 U/mL) was added to initiate the reaction. The absorbance at 340 nm was measured using a Varioskan Flash (Thermo Fisher Scientific, Waltham, MA, USA) full-wavelength scanning multimode reader, with readings taken every 10 s for 10 min. Distilled water was used as a negative control in place of the sample. The reaction kinetics curve was fitted, and the first derivative of the curve at 0 min was calculated as the initial reaction rate. The initial reaction rate of the sample was recorded as Vs, while that of the negative control was recorded as V0. The ADH activation rate of the sample can be calculated using the following equation:(1) ADH activation activity %=VS−V0/V0×100

With “Lys-Pro-Cys [KPC, Chicken-derived tripeptide KPC (Lys-Pro-Cys)]”, in the assay on ADH enzyme, the “binding energy between peptide KPC and ADH enzyme” value is -6.6 kcal/mol. As for QPQQPW [QPQQPW], the concentration for a half-maximal effect (EC50) at ADH is 2730 ± 130 µM. The same measure, in the same setting: then TGCPVLQ [TGCPVLQ], with 2260 ± 160 µM.

Consider SSNCQPF [SSNCQPF], for which, at ADH, the EC50 is 1350 ± 220 µM.
